Assays:
HL-60 [1] = assay: Cytotoxicity against human HL60 cells assessed as reduction in cell viability after 48 hrs by WST-8 assay relative to control; assay type: functional
HL-60 [2] = assay: Cytotoxicity against human HL60 cells assessed as reduction in cell viability after 48 hrs by WST-8 assay; assay type: functional, cell-based; settings: HL-60, 48 h
HeLa = assay: Cytotoxicity against human HeLa cells assessed as reduction in cell viability after 48 hrs by WST-8 assay; assay type: functional, cell-based

SMILES	inhibition (INH) (HL-60 [1]) [%]	EC50 (HL-60 [2]) [µM]	EC50 (HeLa) [µM]
O=C1OC[C@H](Cc2ccccc2)[C@H]1Cc1cccc(O)c1	45	> 100	
Cc1cccc(C[C@H]2C(=O)OC[C@@H]2Cc2ccccc2)c1		53	
Oc1ccccc1C[C@H]1COC[C@@H]1Cc1ccc(Cl)c(Cl)c1		34	
CCCCOc1ccccc1C[C@H]1COC[C@@H]1Cc1ccc(Cl)c(Cl)c1		20	
Cc1ccccc1C[C@H]1COC(=O)[C@@H]1Cc1ccc(Cl)c(Cl)c1		22	
O=C1OC[C@H](Cc2ccccc2)[C@H]1Cc1ccccc1F		72	
Cc1ccc(C[C@H]2C(=O)OC[C@@H]2Cc2ccccc2)cc1		44	
Oc1cccc(C[C@H]2COC[C@@H]2Cc2ccc(Cl)c(Cl)c2)c1		31	
Clc1ccc(C[C@H]2COC[C@@H]2Cc2ccc3c(c2)OCCO3)cc1Cl		38	
CCCCOc1ccc(C[C@H]2C(=O)OC[C@@H]2Cc2ccccc2)cc1OCCCC	29	> 100	
Cc1ccc(C[C@H]2COC(=O)[C@@H]2Cc2ccc(Cl)c(Cl)c2)cc1C		16	
COc1ccc(C[C@H]2COC(=O)[C@@H]2Cc2ccc(Cl)c(Cl)c2)cc1OC		24	
CCCCCCCOc1ccccc1C[C@H]1C(=O)OC[C@@H]1Cc1ccccc1		75	
CCCCOc1cc(C[C@H]2C(=O)OC[C@@H]2Cc2ccccc2)ccc1O		35	
CCCCCCCOc1cccc(C[C@H]2C(=O)OC[C@@H]2Cc2ccccc2)c1		81	
COc1ccc(C[C@H]2COC[C@@H]2Cc2ccc(Cl)c(Cl)c2)cc1O		33	
Cc1ccc(C[C@H]2COC[C@@H]2Cc2ccc(Cl)c(Cl)c2)cc1		21	
COc1ccc(C[C@H]2COC(=O)[C@@H]2Cc2ccc(Cl)c(Cl)c2)cc1		37	
CCCCOc1ccc(/C=C2\C(=O)OC[C@@H]2Cc2ccccc2)cc1		58	
O=C1OC[C@H](Cc2ccccc2)[C@H]1Cc1cccc(F)c1		75	
COc1cccc(C[C@H]2C(=O)OC[C@@H]2Cc2ccccc2)c1		66	
COc1ccc(C[C@H]2C(=O)OC[C@@H]2Cc2ccccc2)cc1		67	
Clc1ccc(C[C@H]2COC[C@@H]2Cc2ccc(Cl)c(Cl)c2)cc1Cl		16	
CCCCOc1ccc(C[C@H]2C(=O)OC[C@@H]2Cc2ccccc2)cc1		23	27
Cc1ccccc1C[C@H]1COC[C@@H]1Cc1ccc(Cl)c(Cl)c1		21	

SMILES	inhibition (INH) (HL-60 [1]) [%]	EC50 (HL-60 [2]) [µM]	EC50 (HeLa) [µM]
Clc1ccc(C[C@H]2COC[C@@H]2Cc2ccc3c(c2)OCO3)cc1Cl		22	
O=C1OC[C@H](Cc2ccccc2)[C@H]1Cc1cc(Cl)cc(Cl)c1		23	17
COc1ccc(C[C@H]2COC[C@@H]2Cc2ccc(Cl)c(Cl)c2)cc1		39	
Cc1ccccc1C[C@H]1C(=O)OC[C@@H]1Cc1ccccc1		57	
CCCCOc1ccccc1C[C@H]1C(=O)OC[C@@H]1Cc1ccccc1		20	
O=C1OC[C@H](Cc2ccc(F)cc2)[C@H]1Cc1ccc(Cl)c(Cl)c1		14	19
COc1cc(C[C@H]2COC(=O)[C@@H]2Cc2ccc(Cl)c(Cl)c2)ccc1O		36	
O=C1OC[C@H](Cc2ccccc2)[C@H]1Cc1ccccc1C(F)(F)F		37	
O=C1OC[C@H](Cc2ccccc2)[C@H]1Cc1ccc(Cl)cc1		36	
O=C1OC[C@H](Cc2ccccc2)[C@H]1Cc1ccc2c(c1)OCO2		57	
Fc1ccc(C[C@H]2COC[C@@H]2Cc2ccc(Cl)c(Cl)c2)cc1		43	
CCCCc1ccc(C[C@H]2COC(=O)[C@@H]2Cc2ccc(Cl)c(Cl)c2)cc1		9.4	27
O=C1OC[C@H](Cc2ccccc2)[C@H]1Cc1ccccc1O		83	
COc1cccc(C[C@H]2COC(=O)[C@@H]2Cc2ccc(Cl)c(Cl)c2)c1		34	
O=C1OC[C@H](Cc2ccccc2)[C@H]1Cc1ccc(F)cc1		57	
O=C1OC[C@H](Cc2cccc(O)c2)[C@H]1Cc1ccc(Cl)c(Cl)c1		48	
CCCCOc1ccc(C[C@H]2COC[C@@H]2Cc2ccccc2)cc1		11	
CCc1ccc(C[C@H]2COC(=O)[C@@H]2Cc2ccc(Cl)c(Cl)c2)cc1		16	
Cc1ccc(C[C@H]2COC[C@@H]2Cc2ccc(Cl)c(Cl)c2)cc1C		36	
C[C@H](Cc1ccccc1)[C@H](C)Cc1ccc(Cl)c(Cl)c1		19	
O=C1OC[C@H](Cc2ccccc2)[C@H]1Cc1cccc(OC(F)(F)F)c1		34	
O=C1OC[C@H](Cc2ccccc2O)[C@H]1Cc1ccc(Cl)c(Cl)c1		33	
Cc1cccc(C[C@H]2COC(=O)[C@@H]2Cc2ccc(Cl)c(Cl)c2)c1		22	
O=C1OC[C@H](Cc2ccccc2)[C@H]1Cc1ccc(OC(F)(F)F)cc1		27	
CCOc1ccccc1C[C@H]1COC[C@@H]1Cc1ccc(Cl)c(Cl)c1		29	

SMILES	inhibition (INH) (HL-60 [1]) [%]	EC50 (HL-60 [2]) [µM]	EC50 (HeLa) [µM]
O=C1OC[C@H](Cc2ccccc2F)[C@H]1Cc1ccc(Cl)c(Cl)c1		28	
O=C1OC[C@H](Cc2ccccc2)[C@H]1Cc1ccc(Cl)c(Cl)c1		19	26
Fc1cccc(C[C@H]2COC[C@@H]2Cc2ccc(Cl)c(Cl)c2)c1		20	
O=C1OC[C@H](Cc2ccccc2)[C@H]1Cc1ccccc1		77	
O=C1OC[C@H](Cc2ccc(Cl)c(Cl)c2)[C@H]1Cc1ccc(Cl)c(Cl)c1		20	
O=C1OC[C@H](Cc2ccccc2)[C@H]1Cc1ccccc1Cl		37	
O=C1OC[C@H](Cc2ccccc2)[C@H]1Cc1ccc(C(F)(F)F)cc1		22	29
CCCCc1ccc(C[C@H]2COC[C@@H]2Cc2ccc(Cl)c(Cl)c2)cc1		23	
O=C1OC[C@H](Cc2ccccc2)[C@H]1Cc1ccccc1OC(F)(F)F		39	
COc1ccc(C[C@H]2C(=O)OC[C@@H]2Cc2ccccc2)cc1OC	38	> 100	
O=C1OC[C@H](Cc2ccc3c(c2)OCO3)[C@H]1Cc1ccc(Cl)c(Cl)c1		51	
COc1ccccc1C[C@H]1C(=O)OC[C@@H]1Cc1ccccc1		79	
CCCCOc1cccc(C[C@H]2C(=O)OC[C@@H]2Cc2ccccc2)c1		26	
CCOc1ccccc1C[C@H]1COC(=O)[C@@H]1Cc1ccc(Cl)c(Cl)c1		15	31
O=C1OC[C@H](Cc2ccccc2)[C@H]1Cc1cccc(C(F)(F)F)c1		34	
COc1cc(C[C@H]2COC[C@@H]2Cc2ccc(Cl)c(Cl)c2)ccc1O		21	
O=C1OC[C@H](Cc2ccc(O)cc2)[C@H]1Cc1ccc(Cl)c(Cl)c1		37	
O=C1OC[C@H](Cc2ccccc2)[C@H]1Cc1ccc(O)cc1		88	
COc1cccc(C[C@H]2COC[C@@H]2Cc2ccc(Cl)c(Cl)c2)c1		73	
COc1cc(C[C@@H]2COC(=O)[C@H]2Cc2ccc(O)c(OC)c2)ccc1O		> 100	> 100
O=C1OC[C@H](Cc2ccc3c(c2)OCCO3)[C@H]1Cc1ccc(Cl)c(Cl)c1		28	
CCCCCCCOc1ccc(C[C@H]2C(=O)OC[C@@H]2Cc2ccccc2)cc1	17	> 100	
O=C1OC[C@H](Cc2ccccc2)[C@H]1Cc1ccc(Cl)cc1Cl		19	23
COc1cc(C[C@H]2C(=O)OC[C@@H]2Cc2ccccc2)ccc1O		93	
Oc1ccc(C[C@H]2COC[C@@H]2Cc2ccc(Cl)c(Cl)c2)cc1		31	

SMILES	inhibition (INH) (HL-60 [1]) [%]	EC50 (HL-60 [2]) [µM]	EC50 (HeLa) [µM]
COc1ccc(C[C@H]2COC(=O)[C@@H]2Cc2ccc(Cl)c(Cl)c2)cc1O		32	
Clc1ccc(C[C@H]2COC[C@@H]2Cc2ccccc2)cc1Cl		19	
O=C1OC[C@H](Cc2ccccc2)[C@H]1Cc1cccc(Cl)c1		36	
COc1cc(C[C@H]2C(=O)OC[C@@H]2Cc2ccccc2)cc(OC)c1OC	44	> 100	
Cc1ccc(C[C@H]2COC(=O)[C@@H]2Cc2ccc(Cl)c(Cl)c2)cc1		19	
COc1ccccc1C[C@H]1COC[C@@H]1Cc1ccc(Cl)c(Cl)c1		55	
Fc1ccc(C[C@H]2COC[C@@H]2Cc2ccc(Cl)c(Cl)c2)cc1F		18	
COc1ccc(C[C@H]2COC[C@@H]2Cc2ccc(Cl)c(Cl)c2)cc1OC		16	
COc1ccccc1C[C@H]1COC(=O)[C@@H]1Cc1ccc(Cl)c(Cl)c1		14	24
Fc1ccccc1C[C@H]1COC[C@@H]1Cc1ccc(Cl)c(Cl)c1		51	
COCOc1ccc(C[C@H]2C(=O)OC[C@@H]2Cc2ccccc2)cc1		71	
O=C1OC[C@H](Cc2ccccc2)[C@H]1Cc1ccc(F)c(F)c1		50	
Cc1cccc(C[C@H]2COC[C@@H]2Cc2ccc(Cl)c(Cl)c2)c1		28	
Cc1ccc(C[C@H]2C(=O)OC[C@@H]2Cc2ccccc2)cc1C		35	
O=C1OC[C@H](Cc2ccc(F)c(F)c2)[C@H]1Cc1ccc(Cl)c(Cl)c1		25	
COCOc1ccccc1C[C@H]1C(=O)OC[C@@H]1Cc1ccccc1		76	
CCCCOc1ccc(/C=C2/C(=O)OC[C@@H]2Cc2ccccc2)cc1	36	> 100	
COCOc1cccc(C[C@H]2C(=O)OC[C@@H]2Cc2ccccc2)c1		80	
CCc1ccc(C[C@H]2COC[C@@H]2Cc2ccc(Cl)c(Cl)c2)cc1		26	
O=C1OC[C@H](Cc2cccc(F)c2)[C@H]1Cc1ccc(Cl)c(Cl)c1		14	20
CCCCOc1ccccc1C[C@H]1COC(=O)[C@@H]1Cc1ccc(Cl)c(Cl)c1		10	> 100
COc1cc(C[C@@H](C)[C@H](C)Cc2ccc(O)c(OC)c2)ccc1O [(-)-DIHYDROGUAIARETICACID]		26	22
COc1cc(C[C@H]2C(=O)OC[C@@H]2Cc2ccc(OC)c(OC)c2)ccc1O [ARCTIGENIN]		12	> 100
COc1cc(C[C@H]2COC(=O)[C@@H]2Cc2ccc(O)c(OC)c2)ccc1O [MATAIRESINOL]		74	> 100

From ChEMBL document CHEMBL4052800, “Syntheses of cytotoxic novel arctigenin derivatives bearing halogen and alkyl groups on aromatic rings” (Bioorg Med Chem Lett, 2017)
